Patent US8362256B2, “Salts of N-[4-(1-cyanocyclopentyl)phenyl]-2-(4-pyridylmethyl)amino-3-pyridinecarboxamide” (Jiangsu Hengrui Medicine Co. Ltd., priority 2008, dated 2013)
Marks after values point to notes of the source that are not given here.

Tested on: human colon cancer Ls174t
Assay: Efficacy on human colon cancer Ls174t transplanted in nude mice
Settings: for Weight after Removing Tumor, d0 / TV x ± SD, d0: d0 baseline; for RTV x ± SD / T/C / TV x ± SD, dn: dn 14 days; for Weight after Removing Tumor, dn: dn 14 days after first administration
Procedure: BALB/cA-nude mice, ♀, 5-6 weeks-old, available from Shanghai Slaccas experimental animals limited liability company. […] Rearing environment: SPF grade.
After one week adaption, the experimental animals were subcutaneously inoculated with human colon cancer Ls174t tumor tissues. When the tumors grew to 100-300 mm^3, the animals were randomly divided into several groups in day 0 (d0). […] The volumes of tumors and the weights of mice were measured 2-3 times every week, the data of which were recorded. The equation for the calculation of volume of tumors (V) is: V=½×a×b^2 wherein a and b represent length and width, respectively.

[1] = 50 mg/kg p.o. once daily d0-d13
[2] = 100 mg/kg p.o. once daily d0-d13
[3] = 200 mg/kg p.o. once daily d0-d13

N#CC1(c2ccc(NC(=O)c3cccnc3NCc3ccncc3)cc2)CCCC1 [Mesylate of compound A]
Weight after Removing Tumor, d0 [1]: 19.1 g
RTV x ± SD [1]: 9.8 ± 3.0
T/C [1]: 79.7%
TV x ± SD, dn [1]: 1452 ± 149
Weight after Removing Tumor, dn [1]: 16.8 g
TV x ± SD, d0 (50 mg/kg p.o.): 155 ± 33
Weight after Removing Tumor, d0 [2]: 19.0 g
RTV x ± SD [2]: 6.4 ± 3.1
T/C [2]: 52.0^a %
TV x ± SD, dn [2]: 931 ± 196
Weight after Removing Tumor, dn [2]: 18.5 g
TV x ± SD, d0 (100 mg/kg p.o.): 161 ± 44
Weight after Removing Tumor, d0 [3]: 18.6 g
RTV x ± SD [3]: 2.0 ± 0.9
TV x ± SD, dn [3]: 310 ± 114
Weight after Removing Tumor, dn [3]: 18.5 g
T/C (200 mg/kg p.o. once daily d0-d13, listed as Mesylate of Compound A): 16.3^a %
T/C (200 mg/kg p.o. once daily d0-d13, listed as mesylate of compound A): 16.3%
TV x ± SD, d0 (200 mg/kg p.o.): 158 ± 20
efficacy at 400 mg/kg (400 mg/kg): did not increase significantly
ED50 (Mus musculus, LS174T, read-out: ED50 on colon cancer Ls174t): 97.2 mg/kg
tolerance at 400 mg/kg (mouse, in vivo): could be tolerated by mice
